Assay results: PubChem BioAssay (NCI)
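Exposure lasted 48 hours, with cells grown in 96-well plates and compounds tested at five concentrations. Definition used: TGI = concentration required for complete inhibition of growth.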

What was measured:
Assay in all cases: DTP human tumour cell line panel, 48 h
786-0 renal = tested on: 786-0 renal
A498 renal = tested on: A498 renal
A549 NSCLC = tested on: A549 NSCLC
ACHN renal = tested on: ACHN renal
CAKI-1 renal = tested on: CAKI-1 renal
CCRF-CEM leukemia = tested on: CCRF-CEM leukemia
COLO 205 colon = tested on: COLO 205 colon
DLD-1 colon = tested on: DLD-1 colon
DMS 114 small cell lung = tested on: DMS 114 small cell lung
DMS 273 small cell lung = tested on: DMS 273 small cell lung
EKVX NSCLC = tested on: EKVX NSCLC
HCC-2998 colon = tested on: HCC-2998 colon
HCT-116 colon = tested on: HCT-116 colon
HCT-15 colon = tested on: HCT-15 colon
HL-60(TB) leukemia = tested on: HL-60(TB) leukemia
HOP-62 NSCLC = tested on: HOP-62 NSCLC
HOP-92 NSCLC = tested on: HOP-92 NSCLC
HT29 colon = tested on: HT29 colon
IGROV1 ovarian = tested on: IGROV1 ovarian
K-562 leukemia = tested on: K-562 leukemia
KM12 colon = tested on: KM12 colon
KM20L2 colon = tested on: KM20L2 colon
LOX IMVI melanoma = tested on: LOX IMVI melanoma
LXFL 529 NSCLC = tested on: LXFL 529 NSCLC
M14 melanoma = tested on: M14 melanoma
M19-MEL melanoma = tested on: M19-MEL melanoma
MALME-3M melanoma = tested on: MALME-3M melanoma
NCI-H226 lung = tested on: NCI-H226 lung
NCI-H23 lung = tested on: NCI-H23 lung
NCI-H460 lung = tested on: NCI-H460 lung
NCI-H522 lung = tested on: NCI-H522 lung
OVCAR-3 ovarian = tested on: OVCAR-3 ovarian
OVCAR-4 ovarian = tested on: OVCAR-4 ovarian
OVCAR-5 ovarian = tested on: OVCAR-5 ovarian
OVCAR-8 ovarian = tested on: OVCAR-8 ovarian
RPMI-8226 leukemia = tested on: RPMI-8226 leukemia
RXF 393 renal = tested on: RXF 393 renal
SF-268 CNS = tested on: SF-268 CNS
SF-295 CNS = tested on: SF-295 CNS
SF-539 CNS = tested on: SF-539 CNS
SK-MEL-28 melanoma = tested on: SK-MEL-28 melanoma
SK-MEL-5 melanoma = tested on: SK-MEL-5 melanoma
SK-OV-3 ovarian = tested on: SK-OV-3 ovarian
SN12C renal = tested on: SN12C renal
SNB-19 CNS = tested on: SNB-19 CNS
SNB-75 CNS = tested on: SNB-75 CNS
SNB-78 CNS = tested on: SNB-78 CNS
SR leukemia = tested on: SR leukemia
SW-620 colon = tested on: SW-620 colon
TK-10 renal = tested on: TK-10 renal
U251 CNS = tested on: U251 CNS
UACC-257 melanoma = tested on: UACC-257 melanoma
UACC-62 melanoma = tested on: UACC-62 melanoma
UO-31 renal = tested on: UO-31 renal
HOP-18 NSCLC = tested on: HOP-18 NSCLC
MOLT-4 leukemia = tested on: MOLT-4 leukemia
RXF-631 renal = tested on: RXF-631 renal
SK-MEL-2 melanoma = tested on: SK-MEL-2 melanoma

Measured: TGI

CN1C2(c3ccccc3)C(C(=O)c3ccccc3)=C(C(=O)c3ccccc3)C1(c1ccccc1)c1c(-c3ccccc3)sc(-c3ccccc3)c12
not listed: HOP-18 NSCLC | MOLT-4 leukemia | RXF-631 renal | SK-MEL-2 melanoma
> 100 µM: all other assays above

COC(=O)C1=CC(=O)[C@@H]2CCCC[C@H]12
not listed: A498 renal | EKVX NSCLC | HOP-92 NSCLC | HT29 colon | IGROV1 ovarian | LOX IMVI melanoma | NCI-H23 lung | OVCAR-5 ovarian | SF-295 CNS | SK-MEL-5 melanoma
> 100 µM: all other assays above
